Here are results for 8 molecules from patent US8796023B2, “Peptide nanostructures containing end-capping modified peptides and methods of generating and using the same” (Ramot at Tel-Aviv University Ltd., priority 2004, dated 2014).

The nature of data set [1]: Self-assembly of end-capping modified diphenylalanine peptides, viewed by SEM/TEM. Format: physicochemical. Particulars: for structures formed by self-assembly (morphology): HFIP stock diluted in ddH2O, SEM/TEM/AFM. Here is the method:
(§1) Materials—End capping modified diphenylalanine peptides, presented in Table 3 hereinbelow, were purchase from Bachem (Bubendorf, Switzerland). Fresh stock solutions of the peptides were prepared by dissolving the lyophilized form of the peptides in 1,1,1,3,3,3-hexafluoro-2-propanol (HFIP, Sigma) at a concentration of 100 mg/ml. To avoid any pre-aggregation, fresh stock solutions were prepared for each experiment. The cyclo-Phe-Phe peptide (Peptide 8) was dissolved in HFIP to a concentration of 25 mg/ml and was subjected to ultrasound until a clear solution was obtained. The peptides stock solutions were diluted into a final concentration of 2 mg/ml in ddH2O. The NH2-Phe-Phe-NH2 peptide (Peptide 3) was diluted into a final concentration of 10 mg/ml in ddH2O.
Scanning electron microscopy (SEM) —Immediately after dilution in ddH2O, peptide solution was allowed to dry at room temperature over glass cover slip and coated with gold. Scanning electron microscopy images were obtained using a JSM JEOL 6300 SEM operating at 5 kV.
Transmission Electron microscopy (TEM) —Samples were placed on a 200 mesh copper grid, covered by carbon stabilized formvar film. After 1 minute excess fluid was removed and the grid was thereafter negatively stained with 2% uranyl acetate in water. After 2 minutes, excess fluid was removed from the grid. The samples were viewed in JEOL 1200EX electron microscope operating at 80 kV.
High resolution transmission electron microscopy—Samples were viewed using a Philips Tecnai F20 Field Emission Gun electron microscope operating at 200 kV. EDX analysis was performed with EDAX detector.
High resolution scanning electron microscopy—HRSEM grids were viewed using a JSM-6700 field emission scanning electron microscope equipped with a cold field emission gun operating at 1 kV.

Data set [2] is described as follows: Fourier transform infrared spectroscopy of the self-assembled structures. Particulars: FT-IR amide-I region. Format: physicochemical. The method, then: Fourier Transform Infrared Spectroscopy—Infrared spectra were recorded using a Nicolet Nexus 470 FT-IR spectrometer with a deuterated triglycine sulfate (DTGS) detector. Peptide solution taken from the abovementioned SEM assays were deposited on a CaF2 plate and dried under reduced pressure. The peptide deposits were resuspended with D2O and subsequently dried to form thin films. The resuspension procedure was repeated twice to ensure maximal hydrogen to deuterium exchange. The measurements […] a 4 cm^−1 resolution and averaging of 2000 scans. The transmittance minimal values were determined by the OMNIC analysis program (Nicolet).

The conditions of data set [3]: same conditions, per WO 2004/052773; cited from earlier work.
Data set [4] is described as follows: Dissolving the peptides for stock solutions. Particulars: in water or in fluoroalcohols. In kind it is physicochemical. Here is the method:
as §1

Data set [5] is described as follows: Atomic force microscope (AFM) imaging of the peptide nanostructures. Format: physicochemical. To be noted: tapping mode, deposited on mica. The method, then:
Atomic Force Microscope (AFM) imaging—The peptide sample solution was diluted again in ddH2O to a concentration of 1 mg/ml. Then the peptide solution was placed on mica grade and dried in vacuum. Dried sample was analyzed using Molecular Imaging PicoSPM II system in tapping mode.

Where two headings read alike, the source gives them in different places. Residues, ends and D or L forms follow the SMILES beside them. *: point of attachment. Fmoc = O=C(OCC1c2ccccc2-c2ccccc21)*; Cbz = O=C(OCc1ccccc1)*; Boc = CC(C)(C)OC(=O)*

In the case of `O=C(NC(Cc1ccccc1)C(=O)NC(Cc1ccccc1)C(=O)O)OCc1ccccc1` (stereo not drawn) [Peptide 7, Cbz-Phe-Phe-COOH] (Cbz-Phe-Phe-OH; configuration not given here), in data set [1], the “structures formed by self-assembly (morphology)” value (shortened to “structures formed … (morphology)”) is given as “fibrillar structures”. For the same molecule, the “molecular conformation of the self-assembled structures” value (“molecular conformation” below) in data set [2] was “antiparallel β-sheet conformation”.
As for `O=C(NC(Cc1ccccc1)C(=O)NC(Cc1ccccc1)C(=O)O)OCC1c2ccccc2-c2ccccc21` (stereo not drawn) [Peptide 6, Fmoc-Phe-Phe-COOH] (Fmoc-Phe-Phe-OH; configuration not given here), the “structures formed … (morphology)” value in data set [1] is “fibrillar structures”.
On to `NC(Cc1ccccc1)C(=O)NC(Cc1ccccc1)C(=O)O` (stereo not drawn) [Peptide 1, NH2-Phe-Phe-COOH] (H-Phe-Phe-OH; configuration not given here), for which the “structures formed … (morphology)” value in data set [3] was “formation of nanotubes”.
As to `CC(=O)NC(Cc1ccccc1)C(=O)NC(Cc1ccccc1)C(=O)O` (stereo not drawn) [Peptide 4, Ac-Phe-Phe-COOH] (Ac-Phe-Phe-OH; configuration not given here), the dissolution result in data set [4] was “did not dissolve”.
Turning to `CC(=O)NC(Cc1ccccc1)C(=O)NC(Cc1ccccc1)C(N)=O` (stereo not drawn) [Peptide 2, Ac-Phe-Phe-NH2] (Ac-Phe-Phe-NH2; configuration not given here), the “structures formed … (morphology)” value in data set [1] is “organized and regular tubular structures”. The “diameters of the tubular structures” value in data set [1] (SEM, within minutes after dilution of peptide stock into aqueous solution) was “few microns to less than 100 nanometers”. Besides, the “height of nanostructures at the Z-range” value in data set [5] is reported as “about 100 nm”. In data set [2], the “molecular conformation” value is reported as “β-sheet conformation”.
Take cyclo-Phe-Phe [Peptide 8]: the “structures formed … (morphology)” value in data set [1] is given as “bundles of tubular structures”. Besides, the “molecular conformation” value in data set [2] is reported as “either an α-helix or a β-turn conformation”.
As to `NC(=O)C(Cc1ccccc1)NC(=O)C(N)Cc1ccccc1` (stereo not drawn) [Peptide 3, NH2-Phe-Phe-NH2] (H-Phe-Phe-NH2; configuration not given here), in data set [1], the “structures formed … (morphology)” value is “tubular structures”. For the same molecule, the “molecular conformation” value in data set [2] was “antiparallel β-sheet conformation”.
On to `CC(C)(C)OC(=O)NC(Cc1ccccc1)C(=O)NC(Cc1ccccc1)C(=O)O` (stereo not drawn) [Peptide 5, Boc-Phe-Phe-COOH] (Boc-Phe-Phe-OH; configuration not given here), for which the “structures formed … (morphology)” value in data set [1] is on record as “highly ordered tubular structures”. For the same molecule, the “molecular conformation” value in data set [2] is recorded as “α-helix conformation”.
